We go through 1 molecule from paper PMC6876276 (Cell Chemical Biology, 2019).

The assay deals with T1, SHMT1 (Homo sapiens, UniProt P34896).
T1 sequence (P34896 2-483): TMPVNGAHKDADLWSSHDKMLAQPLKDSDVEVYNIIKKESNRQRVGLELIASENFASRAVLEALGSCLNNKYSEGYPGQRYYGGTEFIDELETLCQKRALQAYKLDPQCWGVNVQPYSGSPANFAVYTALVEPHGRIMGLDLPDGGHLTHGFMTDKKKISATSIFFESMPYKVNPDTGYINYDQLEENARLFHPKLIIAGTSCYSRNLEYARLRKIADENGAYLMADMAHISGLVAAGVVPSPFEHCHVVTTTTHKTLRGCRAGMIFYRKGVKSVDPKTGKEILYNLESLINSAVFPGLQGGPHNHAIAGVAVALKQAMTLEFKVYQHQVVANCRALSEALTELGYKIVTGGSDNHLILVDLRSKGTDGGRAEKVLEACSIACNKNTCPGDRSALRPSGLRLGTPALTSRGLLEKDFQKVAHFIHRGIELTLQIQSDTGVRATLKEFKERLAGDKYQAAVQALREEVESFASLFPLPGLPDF
As to the kind of experiment: thermal shift assay, SYPRO orange. The format is binding. The following applies: 2 μM apo-SHMT1, SEC buffer; covalent internal aldimine (reversible).

As to `Cc1ncc(COP(=O)(O)O)c(C=O)c1O` [PLP, pyridoxal 5′-phosphate], the melting temperature entry is given as “selective increase in melting temperature of apo-SHMT1 upon incubation with increasing PLP amounts”.
